Experimental findings from patent US7094798B1, “Inhibitors of checkpoint kinases (Wee1 and Chk1)” (Pfizer Inc, priority 2002, dated 2006) are described below.

Read-outs that look alike come from different tables or passages of the source.

As a reminder, the IC50 is the concentration that inhibits the measured activity by half.

For assay [1], the target named is T1, PKC contained in a rat brain preparation.
T1 construct: Enzyme was prepared from a preparation of rat brain (Promega) 0.5 μg diluted with 1.6 ml of 10 mM Hepes buffer pH 7.5
Briefly: Protein Kinase C (PKC) assay. Conditions: histone H1 substrate. The format is biochemical. The method, then: The PKC assay provides a measure of inhibitory activity of the test compounds against PKC contained in a rat brain preparation.
Enzyme was prepared from a preparation of rat brain (Promega) 0.5 μg diluted with 1.6 ml of 10 mM Hepes buffer pH 7.5. Reaction buffer was comprised of 150 mM Hepes buffer, 4 mM CaCl2, 15 mM MgCl2, 3 mM EDTA, 3.75 mM EGTA at pH 7.5. Histone substrate was made by dissolving histone H1 (Sigma) in water at 1.5 mg/ml. Phosphatidylserine/diolein liposomes were made by mixing 75 μl of 10 mg/ml phosphatidylserine (Sigma) in CHCl3 with 60 μl of 2.5 mg/ml diolein in CHCl3 (Sigma) in a glass vial and evaporating the CHCl3 under N2. The film was suspended in 1 ml water and sonicated 6×15 sec with a microtip probe at room temperature.
To carry out the assay, 50 μl buffer, 20 μl histone, 20 μl liposomes, and inhibitor or solvent control were added to wells of a 96-well filter plate (Millipore) with enough water, if necessary, to make the final volume 110 μl. 20 μl of enzyme preparation solution were added and incubated for 10 minutes at room temperature. This was followed by the addition of 20 μl of ^32P ATP (75 μM ATP in water, labeled ATP at 25 μCi/ml) which was incubated for 15 minutes at room temperature. The reaction was terminated by the addition of 50 μl of 40% (w/v) trichloroacetic acid. The filters were washed by vacuum filtration with 5×125 μl of ice cold 10% (w/v) trichloroacetic acid. The filters were placed in scintillation fluor and counted to determine precipitated labeled phosphate incorporated into substrate. The percent inhibition was calculated in comparison to the uninhibited controls.

Assay [2] deals with HT-29 cells. As to the kind of experiment: Clonogenic assay in HT-29 cells ± Adriamycin. Type of assay: cell-based. Conditions: Homo sapiens, compound 250 nM. The method, then:
This cellular assay is a measure of the toxicity of the test compounds in the absence and presence of DNA damage induced by a conventional chemotherapeutic agent.
HT-29 cells were grown in Dulbecco's Modified Eagle Medium with high glucose, supplemented with 1 mM sodium pyruvate, 2 mM L-glutamine, 16 mM HEPES, 8 mM MOPS, and 10% fetal bovine serum. The cells were incubated at 37° C. in an atmosphere of 5% CO2 and 100% relative humidity.
Two or three T-75 tissue culture flasks were seeded at about 50% confluency in 30 ml media and incubated for approximately 24 hours. Adriamycin (ADR) (dissolved at 5 mM in distilled water (dH2O)) was added to the flasks to a final concentration of 1 uM or 500 nM. One flask received no ADR. The cells were allowed to incubate with the ADR for 1 hour. All flasks were then washed twice with 20 ml media allowed to incubate a further 16 hours in 30 ml media.
The stock agar (3.2% Seaplaque GTG Agarose (BioWhittaker Molecular Applications)) was suspended in distilled water and autoclaved for 20 minutes. The agar was melted prior to use in a microwave oven. […]
The cells were trypsinized using Trypsin-EDTA and their concentration adjusted to […] with media. […] The colonies were counted using a Hamamatsu video imaging system and ImageQuant software.

A further assay deals with T2, Chk1 enzyme (Homo sapiens, UniProt O14757).
T2 construct: purchased Onyx Pharmaceuticals
T2 sequence (O14757 1-476): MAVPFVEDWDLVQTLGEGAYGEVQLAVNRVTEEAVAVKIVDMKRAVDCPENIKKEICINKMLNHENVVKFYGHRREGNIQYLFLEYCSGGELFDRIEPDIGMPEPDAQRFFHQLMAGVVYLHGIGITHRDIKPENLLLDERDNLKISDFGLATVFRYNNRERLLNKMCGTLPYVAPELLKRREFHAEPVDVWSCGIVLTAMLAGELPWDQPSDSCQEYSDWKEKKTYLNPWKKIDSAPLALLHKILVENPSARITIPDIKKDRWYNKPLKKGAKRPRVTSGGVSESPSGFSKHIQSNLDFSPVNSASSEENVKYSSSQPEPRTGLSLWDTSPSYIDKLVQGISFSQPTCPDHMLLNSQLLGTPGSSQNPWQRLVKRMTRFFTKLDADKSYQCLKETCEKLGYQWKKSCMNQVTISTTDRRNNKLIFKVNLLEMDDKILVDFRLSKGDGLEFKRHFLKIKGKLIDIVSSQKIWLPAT
As to the kind of experiment: Chk1 enzyme inhibition assay. Type of assay: biochemical. To be noted: isolated Chk1 enzyme, GST-Cdc25 substrate; read-out: CHK1A IC50.

Assay [3] has as its target T3, human Wee1 kinase aa215-647 (Homo sapiens, UniProt P30291).
T3 construct: human Wee1 kinase aa215-647; purchased Onyx Pharmaceuticals; host or cells: baculovirus protein expression system
Briefly: Wee1 inhibition filter binding assay (OY). Type of assay: biochemical. To be noted: isolated Wee1 kinase, Poly Ornithine:Tyrosine (4:1) substrate; read-out: WEE1OY IC50.
Protocol: This assay provides a measure of inhibitory ability of the test compounds against isolated Wee1 kinase.
The Wee1 kinase assay measures enzyme mediated phosphorylation of tyrosine on a synthetic peptide substrate in the presence of compounds being tested. […] Compounds were dissolved and diluted in DMSO, 10 μl 3×EDB buffer (150 mM Tris, pH 8.0, 30 mM NaCl, 30 mM MgCl2, 3 mM DTT), 18 μl water, and 2 μl of drug dilution were added to the test wells and mixed thoroughly, 10 μl of enzyme-substrate mixture was added to the wells. […] The plates were mixed thoroughly for 5 minutes at room temperature. […] The reaction was stopped by adding 50 μl of ice cold 20% TCA with 0.1 M tetrasodium pyro-phosphate. Plates were incubated on ice or refrigerated at 4° C. for 1 hour. Liquid reaction mixture was removed on a vacuum manifold, and the precipitated phosphorylated substrate was rinsed 5 times with 200 μl ice cold 10% TCA with 0.1 M tetrasodium pyrophosphate. 25 μl liquid scintillation cocktail were added to the membrane bound substrate and the plate read in a Microbeta (Perkin-Elmer) plate reader. Activity of compounds was calculated in comparison to uninhibited control determinations in each assay.

The subject of assay [4] is L1210 murine leukemia tumor cells. As to the kind of experiment: Cell cycle distribution of L1210 cells treated in vivo. Details: species or system mice. To be noted: cisplatin 6 mg/kg, compound of Example 80 20 mg/kg, 24 hours after administration.
Assay [5] deals with HT-29 cells. Briefly: MPM-2 assay (mitotic index) in cultured HT-29 cells. Type of assay: cell-based. Conditions: compound 312.5 nM. The method, then: This assay uses […] antibody to quantitate the M-phase specific histological markers in the determination of a mitotic index (fraction of cells found in mitosis).
HT-29 cells were grown in Dulbecco's Modified Eagle Medium with high glucose, supplemented with 1 mM sodium pyruvate, 2 mM L-glutamine, 16 mM HEPES, 8 mM MOPS, and 10% fetal bovine serum. They were incubated at 37° C. in an atmosphere of 5% CO2 and 100% relative humidity.
Cells were seeded in 96-well tissue culture plates at 100 μl per well at a concentration of 40,000 per ml. The cells were allowed to attach and begin growing for 24 hours. 100 μl of adriamycin (ADR) at 2 μM (final=1 μM) was added to test cells and the cells incubated for 1 hour as above. Following the incubation, the plates were washed 2 times with growth media. The media was replaced with 100 μl fresh media and incubate a further 16 hours. Serial 2-fold dilutions of potential abrogators were added to the test wells. The rows that received nocodazole (NOC) have 2 μl NOC added at 2.5 μg/ml. The plates were then incubated an additional 6 hours. Following the incubation, the plates were centrifuged for 5 minutes at 4° C. at 200 g. One hundred microliters of Carnoy's fixative, 3 parts methanol to 1 part acetic acid, was added directly to each well and left at room temperature for 15 minutes. The media/fixative mixture was removed by suction and replaced with ice cold ethanol:acetic acid in a 20:1 ratio. The plates were stored at 4° C. until stained.
The fixed cells were stained for MPM-2 using the Upstate Biotechnology MPM-2 rhodamine detection kit per manufacturer's instructions. Briefly, the cells were washed with Dulbecco's phosphate buffered saline (DPBS) with calcium and magnesium followed by incubation with blocking buffer consisting of 8% bovine serum albumen (BSA) for a minimum of 1 hour. The cells were then washed with PBS one time and treated overnight at 4° C. with primary antibody at 5 μg/ml (100 μl per well) diluted with DPBS with 1% BSA. The cells were then washed twice for 15 minutes each with DPBS and then incubated with a 1:1000 dilution of rhodamine conjugated goat antimouse IgG in DPBS with 1% BSA for 1 hour. The secondary antibody was washed off in three 30-minute washes with DPBS. The cells were then counterstained using the Molecular Probes Mycoflour kit to stain nuclei following the instructions for the kit.
The stained cells were viewed under fluorescence microscopy using fluorescence filters suitable for detecting rhodamine and DAPI stains. Images were captured using a Spot digital camera and images analyzed using ImageQuant to quantitate total nuclei and to count MPM-2 positive cells.

T3 sequence (P30291 215-646 limits assumed): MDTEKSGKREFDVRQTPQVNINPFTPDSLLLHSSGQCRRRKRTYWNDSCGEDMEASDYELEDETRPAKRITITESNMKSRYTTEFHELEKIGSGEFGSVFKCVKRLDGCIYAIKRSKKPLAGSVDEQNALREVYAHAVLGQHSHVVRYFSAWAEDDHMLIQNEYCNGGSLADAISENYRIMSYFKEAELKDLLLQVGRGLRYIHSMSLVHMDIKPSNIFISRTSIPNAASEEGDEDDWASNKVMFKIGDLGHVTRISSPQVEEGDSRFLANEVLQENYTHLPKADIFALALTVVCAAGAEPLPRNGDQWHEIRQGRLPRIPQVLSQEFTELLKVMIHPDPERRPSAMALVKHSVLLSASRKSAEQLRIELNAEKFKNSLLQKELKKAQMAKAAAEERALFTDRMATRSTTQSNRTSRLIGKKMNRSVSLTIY
Protocol for Chk1 enzyme: The assay was carried out in round bottom polypropylene 96-well plates (Costar). Compounds were tested in serial dilutions beginning with a high concentration of 50 μM followed by up to nine 3-fold dilutions. Compounds were dissolved and diluted in DMSO. 2 μl of drug were spotted on the bottom of the assay plates, then diluted with 58 μl of Chk1 buffer (20 mM Tris, pH 8.0, 50 mM NaCl, 10% Glycerol, 10 mM MgCl2, 5 mM dithiothreitol), and mixed at room temperature for 1 minute. […] Contents of the wells were mixed for 1 minute and incubated at room temperature for 10 minutes. […] The contents were mixed for 1 minute and incubated at 30° C. for 30 minutes. The reaction was stopped by adding 50 μl of 120 mM EDTA to each well, except the control wells already containing EDTA. 140 μl of the contents of the wells were transferred to the wells of Reacti-Bind Glutathione Coated White 96-Well Plates (Pierce). Contents were mixed for 1 minute and incubated at room temperature for 1 hour. All of the wells were rinsed three times each with 300 μl PBS and air dried. 200 μl MicroScint 20 (Packard) was put in the wells. Plates were sealed with an adhesive cover and counted in a Top Count Microplate Scintillation counter (Packard). Activity of compounds was calculated in comparison to uninhibited control determinations in each assay.

In assay [1], `O=C1NC(=O)c2c1c(-c1c(Cl)cccc1Cl)cc1c2c2cc(O)ccc2n1CCO` [Example 94, 4-(2,6-Dichlorophenyl)-9-Hydroxy-6-(2-hydroxyethyl)pyrrolo[3,4-c]carbazole-1,3(2H,6H)-dione] showed a 50% inhibitory concentration (IC50) of 1800 nM.
For the compound `Cn1c2cc(OCCCN3CCCC3)c(O)cc2c2c3c(c(-c4ccccc4Cl)cc21)C(=O)NC3=O` [Example 366, 4-(2-Chlorophenyl)-9-hydroxy-6-methyl-8-[3-(1-pyrrolidinyl)propoxy]pyrrolo[3,4-c]carbazole-1,3(2H,6H)-dione], the activity at 0.25 µM turned out to be 2.8% with HT-29 cells [2] (Adriamycin pretreatment 1 hour, read-out: % of Control Colonies With DNA Damage) and 38% with HT-29 cells [2] (no Adriamycin, read-out: % of Control Colonies With No DNA Damage).
On to `COc1ccc2[nH]c3c(c2c1)C1C(=O)NC(=O)C1C(c1ccccc1Cl)C3` (mixture of isomers) [Example 68, 4-(2-Chlorophenyl)-9-methoxy-4,5,6,10c-tetrahydropyrrolo[3,4-c]carbazole-1,3(2H,3aH)-dione], for which the 50% inhibitory concentration (IC50) at Chk1 enzyme turned out to be 435 nM; in assay [1], 480 nM; in assay [3] it was 11 nM.
The compound `O=C(O)CCn1c2ccc(O)cc2c2c3c(c(-c4ccccc4Cl)cc21)C(=O)NC3=O` [Example 230, 3-(4-(2-Chlorophenyl)-9-hydroxy-1,3-dioxo-2,3-dihydropyrrolo[3,4-c]carbazol-6 (1H)-yl)propanoic acid] had an IC50 in assay [1] of 1500 nM.
Same read-out and setting: with `CN(C)CCNC(=O)CCn1c2ccc(O)cc2c2c3c(c(-c4ccccc4)cc21)C(=O)NC3=O` [Example 214, N-[2-(Dimethylamino)ethyl]-3-(9-hydroxy-1,3-dioxo-4-phenyl-2,3-dihydropyrrolo[3,4-c]carbazol-6 (1H)-yl)propanamide] the figure was 171 nM.
`N.N.[Cl][Pt][Cl]` [Cisplatin, reference compound]: in assay [4], the “Cell cycle distribution of L1210 cells, G1” value worked out at 14.0%; the “Cell cycle distribution of L1210 cells, G2M” value worked out at 59.6%; the “Cell cycle distribution of L1210 cells, S” value turned out to be 26.4%.
The compound `O=C1NC(=O)c2c1c(-c1ccccc1Cl)cc1c2c2cc(O)ccc2n1CCCO` [Example 80, 4-(2-Chlorophenyl)-9-hydroxy-6-(3-hydroxypropyl)pyrrolo[3,4-c]carbazole-1,3(2H,6H)-dione] gave an IC50 in assay [1] of 1490 nM. In assay [4], the “Cell cycle distribution of L1210 cells, G1” value is listed as 60.0%; the “Cell cycle distribution of L1210 cells, G2M” value is given as 12.4%; the “Cell cycle distribution of L1210 cells, S” value came to 27.6%.
With `CN(C)CCCOc1cc2c(cc1O)c1c3c(c(-c4ccccc4Cl)cc1n2C)C(=O)NC3=O` [Example 363, 4-(2-Chlorophenyl)-8-[3-(dimethylamino)propoxy]-9-hydroxy-6-methylpyrrolo[3,4-c]carbazole-1,3(2H,6H)-dione], the “% of cells in M phase, + Media” value in the assay on HT-29 cells [5] (6 hours) worked out at 26.4%. Also, in the assay with HT-29 cells [5] (after ADR 1 μM 1 hour and 16 hours), the “% of cells in M phase, + ADR” value is 18.9%. Further, in the assay on HT-29 cells [5] (after ADR 1 μM, with nocodazole 6 hours), the “% of cells in M phase, + ADR + NOC” value was determined as 86.2%. For the same compound, the “% of cells in M phase, + NOC” value with HT-29 cells [5] (with nocodazole 6 hours) is on record as 37.2%.
Take `O=C1NC(=O)c2c1c(-c1ccccc1)cc1oc3ccc(O)cc3c21` [Example 369, 9-Hydroxy-4-phenyl-1H-[1] benzofuro[3,2-e]isoindole-1,3(2H)-dione]: the IC50 in assay [1] was over 4000 nM.
